Laboratory results taken from patent US20250276065A1, “Electro Magnetic Transducer Network in the Enhancement of Anti-infective Strategies” (priority 2022, published 2025).
Entries after “also recorded” stand apart in the source; their conditions may differ.

Tests used:
[1] = system: Staphylococcus epidermidis (SE) biofilm; test: Biofilm eradication by PEMF and Con-A t-MNPs (Example 3, preliminary data); assay type: cell-based; details: PEMF + Con-A t-MNPs + antibiotic (FIG. 9)
Experimental: Using Staphylococcus epidermidis (SE), the biofilm eradication increased over 80% when PEMF was administered at a frequency of 50 kHz and a magnetic field amplitude of 1.2 mT along with t-MNPs functionalized with Concanavalin-A (Con-A) that target components of the bacterial membrane, cell wall, and extracellular matrix.

S. epidermidis biofilms [2] = test: Eradication of pre-formed S. epidermidis biofilm by PEMF + antibiotic on plastic plates (Example 4, Phases 2 and 3); assay type: cell-based, Staphylococcus epidermidis; details: for combined PEMF + antibiotic treatment compared to theoretical additive effect: all time points, plastic 6-well plates; for eradication of S. epidermidis biofilm by antibiotic alone: no PEMF
Experimental: Staphylococcus epidermidis (S. epidermidis) ATCC 14990 was used for the biofilm experiments. The observed results were further confirmed by repeating said tests on S. epidermidis strain ATCC 35984. To test the above model the cells were first grown in Trypticase Soy Broth (TSB) (30 gl^−1 in purified water, autoclaved at 121° C. for 15 min; Becton, Dickinson and Company, Los Angeles, CA). The cells were incubated for 24 hours at 37° C. and then diluted 1:100 into TSB with glucose and plated. Five phases of experiments with this set-up have been successfully completed:
3) Evaluation of PEMFs ability to enhance the efficacy of antibiotic (specifically oxacillin and vancomycin) treatment against fully formed S. epidermidis biofilms on cell culture treated plastic plates.
For the biofilm inhibition experiments PEMF was applied to all experimental plates immediately after the cells were plated, with the […] being placed in a non-treated 37° C. incubator for the duration of treatment. Alternatively, for phases 2-4, cells were plated and then placed back in the non-treated 37° C. incubator for 24 hours (deemed adequate time for a biofilm to fully form through the literature and confirmed by preliminary experiments) before being exposed to PEMF.
In each phase, PEMF exposure was delivered for the following intervals: • 0 hours ([…] group, in 37° C. incubator for entirety of experiment) • 4 hours×2 cycles (exposed to PEMF hours 1-4, placed in 37° C. incubator hours 5-8, exposed to PEMF hours 9-12) • 12 hours continuously • 24 hours continuously
It is important to note that for all phase 3 trials, all PEMF exposure groups were tested as listed and compared to identical PEMF exposure times plus antibiotic. In phase 5 trials, PEMF exposure was delivered for alternate intervals of 0 hours, 3 hours, 6 hours, and 12 hours. This decision was due to the increased biofilm eradication ability of PEMF when combined with magnetic fNPs. As greater eradication was observed, it was deemed relevant to test shorter PEMF exposure intervals that are more applicable in the clinical setting.
At the conclusion of said experiments, crystal violet and alamarBlue assays were used to quantify the remaining viable biofilm in each well, and CFU/ml counts were used to quantify the planktonic (free-living) S. epidermidis cells.
The calculation performed to determine the theoretical additive effect of PEMF+antibiotic treatment and compare to the empirical effect of simultaneous PEMF and antibiotic treatment was a simple probability calculation: P(A)+(1−P(A))*P(B).

S. epidermidis biofilms [3] = test: Crystal violet assay of total biomass of pre-formed S. epidermidis biofilms, PEMF with or without antibiotic (Example 1); assay type: cell-based, Staphylococcus epidermidis; details: for eradication of S. epidermidis biofilm by antibiotic alone: antibiotic alone at MIC, no PEMF, CV and alamarBlue (FIG. 2, FIG. 3); for combined PEMF + antibiotic treatment compared to theoretical additive effect: antibiotic at MIC, all PEMF time points, p<0.001
Experimental: Experiments were performed initially on S. epidermidis strain ATCC 14990 and further tested on S. epidermidis strain ATCC 35984, which is known to be a particularly strong biofilm former (Okajima, Y. et al., 2006, Invest Ophthalmol Vis Sci, 47(7):2971-2975). Trypticase soy broth (TSB) (30 g l^−1 in water, autoclaved at 121° C. for 15 minutes; BD Bacto TSB from Fisher Scientific) was used for in vitro growth of bacterial cell cultures, and 50% glucose was added to the medium at a final concentration of 0.25%. Sterile Falcon 6-well, clear, flat-bottom, tissue culture-treated, cell culture plates (Corning; Lot #1059012) and sterile CELLSTAR cell culture 24-well, PS, clear, tissue culture-treated plates (Greiner; Lot #E100501A) were used for S. epidermidis cell plating and biofilm growth (6-well plates used for crystal violet assay experiments; 24-well plates used for alamarBlue assay experiments).
The PEMF apparatus was custom made in the laboratory and was previously described in Ghalayani Esfahani et al. 2019 (Esfahani, A. et al., 2019, J Appl Microbiol, 126(1):87-101). Briefly, the PEMF apparatus consisted of an acrylic shelved rack with wrap-around Helmholtz coils, a signal generator, and a power supply. […] A digital oscilloscope (TBS1000C, Tektronix, Beaverton, OR) was used to monitor the signal waveform. All plates not under PEMF treatment were kept in a 37° C. incubator, identical temperature to the PEMF incubator.
S. epidermidis biofilms were grown by initially incubating freezer stock S. epidermidis cell scrapings in TSB media at 37° C. for 24 hours with shaking. Subsequently, the cells were diluted 1:100 into TSB media containing 0.25% glucose and then aliquoted, in 3 ml or 1 ml aliquots, into 6-well or 24-well plates, respectively. To test the ability of PEMF to disrupt pre-formed biofilms, inoculated plates were incubated for 24 hours to allow biofilm formation to occur. Negative controls of only TSB media containing 0.25% glucose (i.e., no cells) were also included for all plates to ensure no contamination occurred.
Crystal Violet (CV) assay was utilized to quantify biofilm formation in vitro as previously described (Esfahani, A. et al., 2019, J Appl Microbiol, 126(1):87-101). After incubation of the biofilm in the plates with or without treatment, the media and any non-adhered cells were removed. The well of the plates were then washed with Wash Buffer three times to ensure only biofilm-adhered cells remained. Next, wells were incubated with CV at room temperature for 15 minutes. The CV stain was then removed, and wells were washed twice with water. An 80% ethanol/20% acetone solution was then added and allowed to incubate for 20 minutes at room temperature to solubilize the dye. Absorbance readings were thereafter obtained at 570 nm and recorded for each well (BMG LABTECH, FLUOstar Omega plate reader).
To test possible synergism between PEMF exposure and antibiotic treatment, the MIC of both oxacillin and vancomycin for the specific S. epidermidis strain used was determined. S. epidermidis were first incubated in TSB media at 37° C. for 24 hours with shaking. […] After 24 hours, OD600 readings of the wells were taken. The MIC of each antibiotic was determined to be the lowest concentration to show inhibition of planktonic S. epidermidis cell growth.
To confirm the reproducibility of results, all experiments were run identically at least three times with similar outcomes before results were analyzed and reported. […]

[4] = system: Staph epidermidis biofilm; test: AlamarBlue biofilm eradication with fNPs or NPs, PEMF and vancomycin (Example 2, Phase I); assay type: cell-based, Staphylococcus epidermidis
Experimental: A series of experiments were conducted on Staphylococcus epidermidis and aureus. Staph epidermidis cells were grown, diluted, and aliquoted onto cell culture plates. Biofilm was formed by letting the bacteria grow for 48 hrs. in the tissue culture wells. Planktonic cell growth was measured using serial dilutions and subsequently determining CFU/mL counts. Biofilm assay was performed through AlamarBlue cell viability reagent and obtaining fluorescence readings at 544/590 excitation/emission (ex/em). Magnetic nanoparticles functionalized with a lectin, Concanavalin-A, were purchase from Sigma Aldrich. Vancomycin was used as an antibiotic.
Biofilm-containing plates were exposed to different conditions and specifically: • 1) No treatment • 2) Vancomycin alone • 3) PEMF alone • 4) PEMF+Vancomycin • 5) fNPs only (5 different fNPs concentration) • 6) PEMF+fNPs (5 different fNPs concentration) • 7) PEMF+fNPs+Vancomycin (5 different fNPs concentration) • 8) NPs only (5 different fNPs concentration) • 9) PEMF+NPs (5 different fNPs concentration)
The NPs in the functionalized and non-functionalized groups had the same composition and size distribution. PEMF exposure was delivered at 37° C. and various periods: 0 hrs, 6 hrs, and 12 hrs.

mammalian cells = details: cited from earlier work
[5] = system: S. aureus (both methicillin- and vancomycin-resistant), S. epidermidis, and P. aeruginosa; details: cited from earlier work
Staphylococcal membranes = details: within 60 minutes of exposure; cited from earlier work
[6] = up to 20 times its minimum bactericidal concentration; cited from earlier work

Row | Molecule | change in percentage of eradication when antibiotic was added to the nanoparticles [1] | combined PEMF + antibiotic treatment compared to theoretical additive effect (S. epidermidis biofilms [2]) | eradication of S. epidermidis biofilm by antibiotic alone (S. epidermidis biofilms [2]) | reduction of total biomass, quantified by CV assay (S. epidermidis biofilms [3]; PEMF 24-hour exposure + antibiotic at MIC simultaneously, pre-formed biofilm, vs 48-hour control group, mean) | eradication of S. epidermidis biofilm by antibiotic alone (S. epidermidis biofilms [3]) | combined PEMF + antibiotic treatment compared to theoretical additive effect (S. epidermidis biofilms [3]) | effect on eradication of adding Vancomycin to fNPs + PEMF ([4]; PEMF + fNPs + Vancomycin) | increase in biofilm eradication ([4]; antibiotic used alone) | toxicity to mammalian cells (mammalian cells) | antibacterial activity [5] | leakage of preloaded intracellular calcein dye (Staphylococcal membranes) | cytotoxicity levels [6]
1 | Cc1onc(-c2ccccc2)c1C(=O)N[C@@H]1C(=O)N2[C@@H]1SC(C)(C)[C@@H]2C(=O)O [oxacillin] | only slightly increased | significantly synergistic; also recorded: significant empirical synergism | Neither oxacillin nor vancomycin alone significantly eradicated | 74% | Neither oxacillin nor vancomycin (FIG. 2, FIG. 3) alone significantly eradicated | synergistically enhanced; also recorded: significantly synergistic | – | – | – | – | – | –
2 | CN[C@H](CC(C)C)C(=O)N[C@H]1C(=O)N[C@@H](CC(N)=O)C(=O)N[C@H]2C(=O)N[C@H]3C(=O)N[C@H](C(=O)N[C@H](C(=O)O)c4cc(O)cc(O)c4-c4cc3ccc4O)[C@H](O)c3ccc(c(Cl)c3)Oc3cc2cc(c3O[C@@H]2O[C@H](CO)[C@@H](O)[C@H](O)[C@H]2O[C@H]2C[C@](C)(N)[C@H](O)[C@H](C)O2)Oc2ccc(cc2Cl)[C@H]1O [vancomycin] | only slightly increased | significantly synergistic | Neither oxacillin nor vancomycin alone significantly eradicated | – | Neither oxacillin nor vancomycin (FIG. 2, FIG. 3) alone significantly eradicated | synergistically enhanced; also recorded: significantly synergistic | does not increase much the eradication | 5% | – | – | – | –
3 | LL-37: human cathelicidin antimicrobial peptide; N-terminal-cysteine form CLLGDFFRKSKEKIGKEFKRIVQRIKDFLRNLVPRTES (SEQ ID NO: 1) (N-terminal cysteine) | – | – | – | – | – | – | – | – | non-toxic | – | – | –
4 | WR12: de novo designed synthetic antimicrobial peptide; N-terminal-cysteine form CRWWRWWRRWWRR (SEQ ID NO: 2) (N-terminal cysteine) | – | – | – | – | – | – | – | – | – | potent antibacterial activity | greater than 95% | negligible
